The values below come from US12702692B2, “Therapeutic use of calcium-activated chloride channel peptide activator” (CENTRE NATIONAL DE LA RECHERCHE SCIENTIFIQUE, priority 2020, dated 2026).

Assay [1] is described as follows: Acute effect on tear fluid secretion (tearing rate, phenol red thread) in naive rats. Type of assay: in vivo, Sprague-Dawley rats. As for the experimental part:
Sprague-Dawley rats (males, around 200 g) were purchased from Charles River and adapted one week before processing the experiment. Two-three rats per cage were housed in a controlled environment of 12 hours intervals of light/dark cycles and free access to food and water. Animal experiments were approved by the Animal Care and Use Committee of the University of Barcelona (CEEA) and the […] de Territori i Sostenibilitat of Generalitat de Catalunya, Catalonia, Spain (319/19; 10935) and followed the ethical guidelines of the International Association for the Study of Pain. […] (also named Nter 13 peptide or […] NO: 2)) and scramble ([…] NO: 7)) peptides were purchased from GenScript Biotech (Leiden, Netherlands) and provided by CNRS. Both peptides were dissolved in Phosphate Buffered Saline (PBS) at 10 mM and used for topical ocular application (5 ul per eye). Tear fluid secretion (tearing rate) was measured using phenol red threads (Zone-Quick, Menicon, Nagoya, Japan) placed on the lower eyelid for 30 s without topical anesthesia (Trost, 2007; Acosta 2013). Tearing rate was determined with an accuracy of ±0.5 mm by measurement of the length of the red portion of the thread. After habituation of the animals, basal tearing rate was measured in both eyes before any topical application of peptides. Then, animals were divided in different groups and a solution containing vehicle (PBS), amiloride (1 mM), peptide N13 or peptide scramble was topically applied to the ocular surface (5 μl) and tearing rate was measured at 1, 3, 6, 12 and 24 h. Tearing rate measurements were done blind to the treatment received by the animals. Data are presented as mean±standard error of the mean (SEM). Statistical differences between different sets of data were assessed by performing repeated measured One-way ANOVA plus Bonferroni's post-tests (each data point in an experimental group vs. basal values) or repeated measured Two-way ANOVA plus Bonferroni's post-tests (each data point in […] group vs. Scramble or Vehicle group; or point in […] or amiloride groups vs. Vehicle group) using Prism 9 (GraphPad Software, San Diego, CA). The significance level was set at p<0.05 in all statistical analyses.

The nature of assay [2]: Tear fluid secretion in dry eye model (surgical removal of exorbital lachrymal gland). The class given is in vivo, Sprague-Dawley rats. Conditions: N13ter 10 mM topical. As for the experimental part: Sprague-Dawley rats (males, around 200 g) were purchased from Charles River and adapted one week before processing the experiment. Two-three rats per cage were housed in a controlled environment of 12 hours intervals of light/dark cycles and free access to food and water. Animal experiments were approved by the Animal Care and Use Committee of the University of Barcelona (CEEA) and the Departament de Territori i Sostenibilitat of Generalitat de Catalunya, Catalonia, Spain (319/19; 10935) and followed the ethical guidelines of the International Association for the Study of Pain.
N13ter (also named Nter 13 peptide or N13) ([…] (SEQ ID NO: 2)) and scramble ([…] (SEQ ID NO: 7)) peptides were purchased from GenScript Biotech (Leiden, Netherlands) and provided by CNRS. Both peptides were dissolved in Phosphate Buffered Saline (PBS) at 10 mM and used for topical ocular application (5 ul per eye).
Tear fluid secretion (tearing rate) was measured using phenol red threads (Zone-Quick, Menicon, Nagoya, Japan) placed on the lower eyelid for 30 s without topical anesthesia (Trost, 2007; Acosta 2013). Tearing rate was determined with an accuracy of ±0.5 mm by measurement of the length of the red portion of the thread.
To establish a dry eye model, a similar procedure to those previously described was used (Callejo 2015, Pain; 156(3):483-495, Kovacs, 2016, Pain.; 157(2):399-417). Rats were intraperitoneally anaesthetized with ketamine/xylacine (80:10 mg/kg). […] Tear fluid secretion was measured in both eyes before (basal) and once a week at 1, 2, 3 and 4 weeks after surgery using phenol red threads (Zone-Quick, Menicon, Nagoya, Japan) placed on the lower eyelid for 30 s without topical anesthesia (Trost, 2007; Acosta 2013). Tearing rate was determined with an accuracy of ±0.5 mm by measurement of the length of the red portion of the thread. After tearing rate measurement on week 4, animals were divided in two groups and a solution containing one of the peptides (N13ter or PBS) was topically applied to the ocular surface (5 μl) and tearing rate was measured at 1, 3, 6, 12 and 24 h. […]

Where only a bound is given, the exact number is not on record here.

Consider “LARRSPRSSDGKL (SEQ ID NO: 2) (amino acid residues between positions 30 to 42 of the human KCNE1 protein sequence) [N13ter]”, for which, in assay [1] (10 mM topical, 5 μl per eye, n=20 eyes, basal 7.65±0.49 mm (N13ter)), the “tearing rate at 6 h” value amounted to 9.65±0.57 mm. Besides, the “tearing rate at 12 h” value in assay [1] (10 mM topical, 5 μl per eye, n=20 eyes, basal 7.65±0.49 mm (N13ter), 8.10±0.54 mm (Scramble)) was 8.85±0.73 mm. Moreover, the “tearing rate at 12 h” value in assay [1] (N13ter 10 mM topical, vehicle/amiloride study, n=12 eyes, basal 4.53±0.43) stood at 6.66±0.64 mm. Further, the “time after application at which the enhancing effect becomes significant” value in assay [1] (N13ter 10 mM vs scramble peptide) was in the range of 6 to 12 h. Moreover, the “effect on tearing rate compared with Vehicle” value in assay [1] (N13ter 10 mM, amiloride 1 mM, vehicle PBS) is given as “significant increase in tearing rate”. Moreover, the “effect on tearing rate” value in assay [1] (N13ter vs Scramble study, both 10 mM topical) is reported as “small but significant increase in tearing rate”. Also, the “effect on tearing rate vs vehicle, pooled data” value in assay [1] (all N13ter 10 mM studies pooled, n=32 eyes, normalized to basal) is “statistically significant effect at 1, 3, 6, 12 and 24 h, obtaining the maximal increase at 6 and 12 h”. For the same sequence, in assay [2], the “effect on tearing rate vs vehicle” value was “statistically significant compared to vehicle group” and the “time to return to basal values” is listed as no more than 24 h. For the same sequence, the “tearing rate at 3 h (peak)” value in assay [2] (n=14 eyes, 5 weeks basal 4.04±0.49 mm) worked out at 6.54±0.78 mm.
